The experiment relates to HEK293 cells. Put plainly: Endogenous ceramide, HexCer and SM levels in cells treated 24 h, targeted LC-MS/MS. The conditions noted are these: HEK293 cells, 24 h. The experiment is classed as cell-based. As to the method:
Lipids were then extracted using MTBE/methanol/water as described above.
HEK293 cell culture experiment: Levels of each lipid in P053-treated HEK293 cells were normalised to the mean of the vehicle control group, and each concentration was compared to the control using ANOVA with Dunnett’s post-test. P values were adjusted for multiple comparisons in GraphPad PRISM.
Supplementary Figure 1. Ceramide, SM, and HexCer levels in HEK293 cells treated with
P053. Absolute lipid levels were determined by targeted LC-MS/MS, relative to external
standard curves. Results are mean ± SEM (n = 4) from one of two identical experiments.
Statistically significant results, based on two independent experiments, are as indicated in
Figure 2b-d. Raw data for these figures is provided in Supplementary Data File 1.

Where “and” joins values, the source holds several entries; their conditions need not be identical. Equal values may be shown once.

The values that follow come from PMC6104039 (Nature Communications, 2018).

As for `C[C@@](N)(CO)CCc1ccc(OCc2ccc(Cl)c(Cl)c2)cc1` [P053, (S)-2-amino-4-(4-(3,4-dichlorobenzyloxy)phenyl)-2-methylbutan-1-ol], for the setting “P053 100 nM”, the “16:0 Cer level” value was 93.0789 percentage of the vehicle control group and 87.8624 percentage of the vehicle control group and 90.7567 percentage of the vehicle control group and 99.4946 percentage of the vehicle control group and 119.082 percentage of the vehicle control group and 99.8119 percentage of the vehicle control group and 116.788 percentage of the vehicle control group and 98.8463 percentage of the vehicle control group; the “16:0 HexCer level” value was 72.1291 percentage of the vehicle control group and 81.3101 percentage of the vehicle control group and 75.1757 percentage of the vehicle control group and 88.1626 percentage of the vehicle control group and 92.7296 percentage of the vehicle control group and 94.3662 percentage of the vehicle control group and 88.291 percentage of the vehicle control group and 103.879 percentage of the vehicle control group; the “16:0 SM level” value is 96.6683 percentage of the vehicle control group and 97.496 percentage of the vehicle control group and 96.0726 percentage of the vehicle control group and 98.7215 percentage of the vehicle control group and 93.8292 percentage of the vehicle control group and 95.9275 percentage of the vehicle control group and 94.8581 percentage of the vehicle control group and 102.543 percentage of the vehicle control group; the “16:1 SM level” value is 104.314 percentage of the vehicle control group and 87.7756 percentage of the vehicle control group and 92.2071 percentage of the vehicle control group and 111.506 percentage of the vehicle control group and 103.607 percentage of the vehicle control group and 109.147 percentage of the vehicle control group and 99.9145 percentage of the vehicle control group and 113.03 percentage of the vehicle control group. Besides, where the note is “P053 100 nM”, the “18:0 Cer level” value is 51.8361 percentage of the vehicle control group and 34.0436 percentage of the vehicle control group and 43.3209 percentage of the vehicle control group and 47.0876 percentage of the vehicle control group and 49.1716 percentage of the vehicle control group and 60.878 percentage of the vehicle control group and 53.1013 percentage of the vehicle control group and 34.6023 percentage of the vehicle control group; the “18:0 HexCer level” value was 26.076 percentage of the vehicle control group and 45.6733 percentage of the vehicle control group and 33.7976 percentage of the vehicle control group and 35.7543 percentage of the vehicle control group and 29.3831 percentage of the vehicle control group and 38.4787 percentage of the vehicle control group and 45.094 percentage of the vehicle control group and 48.7 percentage of the vehicle control group; the “18:0 SM level” value was 58.3863 percentage of the vehicle control group and 60.4391 percentage of the vehicle control group and 60.0968 percentage of the vehicle control group and 58.0444 percentage of the vehicle control group and 61.8417 percentage of the vehicle control group and 67.9073 percentage of the vehicle control group and 68.1366 percentage of the vehicle control group and 74.9383 percentage of the vehicle control group; the “18:1 SM level” value was 67.1121 percentage of the vehicle control group and 61.0781 percentage of the vehicle control group and 66.2487 percentage of the vehicle control group and 67.0185 percentage of the vehicle control group and 69.283 percentage of the vehicle control group and 68.5826 percentage of the vehicle control group and 71.1925 percentage of the vehicle control group. For the same compound, where the note is “P053 100 nM”, the “20:0 Cer level” value is 85.7665 percentage of the vehicle control group and 109.856 percentage of the vehicle control group and 101.721 percentage of the vehicle control group and 86.1177 percentage of the vehicle control group and 103.673 percentage of the vehicle control group and 96.5034 percentage of the vehicle control group and 78.6868 percentage of the vehicle control group; the “22:0 Cer level” value is 109.852 percentage of the vehicle control group and 94.2148 percentage of the vehicle control group and 84.7703 percentage of the vehicle control group and 98.1236 percentage of the vehicle control group and 119.57 percentage of the vehicle control group and 118.497 percentage of the vehicle control group and 136.979 percentage of the vehicle control group and 110.794 percentage of the vehicle control group; the “22:0 HexCer level” value is 96.8671 percentage of the vehicle control group and 87.3308 percentage of the vehicle control group and 81.4727 percentage of the vehicle control group and 94.5887 percentage of the vehicle control group and 107.975 percentage of the vehicle control group and 124.49 percentage of the vehicle control group and 104.798 percentage of the vehicle control group and 129.338 percentage of the vehicle control group; the “22:0 SM level” value was 88.1464 percentage of the vehicle control group and 112.339 percentage of the vehicle control group and 83.7907 percentage of the vehicle control group and 79.4494 percentage of the vehicle control group and 115.966 percentage of the vehicle control group and 112.687 percentage of the vehicle control group and 121.861 percentage of the vehicle control group and 131.998 percentage of the vehicle control group. Further, under “P053 100 nM”, the “22:1 SM level” value is 110.7 percentage of the vehicle control group and 102.614 percentage of the vehicle control group and 109.89 percentage of the vehicle control group and 108.27 percentage of the vehicle control group and 108.462 percentage of the vehicle control group and 113.237 percentage of the vehicle control group and 107.396 percentage of the vehicle control group and 108.45 percentage of the vehicle control group; the “24:0 HexCer level” value was 91.3427 percentage of the vehicle control group and 87.2698 percentage of the vehicle control group and 81.8027 percentage of the vehicle control group and 92.8624 percentage of the vehicle control group and 100.187 percentage of the vehicle control group and 107.186 percentage of the vehicle control group and 106.263 percentage of the vehicle control group and 116.702 percentage of the vehicle control group; the “24:0 SM level” value is 117 percentage of the vehicle control group and 90.9141 percentage of the vehicle control group and 93.8706 percentage of the vehicle control group and 115.93 percentage of the vehicle control group and 114.197 percentage of the vehicle control group and 134.57 percentage of the vehicle control group and 140.981 percentage of the vehicle control group; the “24:1 Cer level” value was 110.817 percentage of the vehicle control group and 85.3956 percentage of the vehicle control group and 97.052 percentage of the vehicle control group and 96.6841 percentage of the vehicle control group and 128.871 percentage of the vehicle control group and 121.829 percentage of the vehicle control group and 142.778 percentage of the vehicle control group and 120.748 percentage of the vehicle control group. For the same compound, where the note is “P053 100 nM”, the “24:1 HexCer level” value was 91.7407 percentage of the vehicle control group and 95.5309 percentage of the vehicle control group and 96.8003 percentage of the vehicle control group and 101.48 percentage of the vehicle control group and 104.186 percentage of the vehicle control group and 105.129 percentage of the vehicle control group and 100.754 percentage of the vehicle control group and 113.013 percentage of the vehicle control group; the “24:1 SM level” value was 111.218 percentage of the vehicle control group and 94.5875 percentage of the vehicle control group and 99.337 percentage of the vehicle control group and 100.942 percentage of the vehicle control group and 110.843 percentage of the vehicle control group and 105.998 percentage of the vehicle control group and 112.241 percentage of the vehicle control group and 112.423 percentage of the vehicle control group. For the same compound, under “P053 300 nM”, the “14:0 SM level” value was 100.258 percentage of the vehicle control group and 95.2604 percentage of the vehicle control group and 95.8152 percentage of the vehicle control group and 99.1466 percentage of the vehicle control group and 109.96 percentage of the vehicle control group and 116.62 percentage of the vehicle control group and 129.695 percentage of the vehicle control group; the “16:0 Cer level” value is 91.1433 percentage of the vehicle control group and 77.1433 percentage of the vehicle control group and 90.5634 percentage of the vehicle control group and 83.6347 percentage of the vehicle control group and 92.4764 percentage of the vehicle control group and 98.9865 percentage of the vehicle control group and 90.2518 percentage of the vehicle control group; the “16:0 HexCer level” value is 76.4857 percentage of the vehicle control group and 73.433 percentage of the vehicle control group and 81.5302 percentage of the vehicle control group and 81.9705 percentage of the vehicle control group and 86.9585 percentage of the vehicle control group and 88.1949 percentage of the vehicle control group and 93.4284 percentage of the vehicle control group.
